Assay results as given in patent US20230330104A1, “PRESERVATIVE-FREE OPHTHALMIC PHARMACEUTICAL EMULSION AND ITS APPLICATION” (Caravel Therapeutics, Inc., priority 2022, published 2023).
Values joined by “and” are separate entries in the source; they are usually repeats but may differ in a detail not shown here. Equal values may be shown once. “Also recorded” adds a separate entry of the source.

Key:
[1] = Stability study (ICH Q1A(R2)) of the emulsion; type: physicochemical; details: accelerated condition
Procedure: In this section, stability study is conducted using the abovementioned Example 1 as an example. The stability study is performed according to common practices known such as ICH HARMONISED TRIPARTITE GUIDELINE-Topic Q1A(R2) <Stability Testing of new Drug Substances and Products> and inspection items are screened based on USP chapter 771 and 1771. The stability study is carried out under two conditions: temperature of 5° C.±3° C. with no humidity; and temperature of 25° C.±2° C. with the relative humidity of 60%±5%. LBN content is determined with an HPLC equipped with an UV detector and using a mixture of two mobile phases. The HPLC condition reports as the following: [table]

[2] = system: patients diagnosed with open angle glaucoma; experiment: IOP measurement after emulsion instillation; type: in vivo, human; details: baseline 17.68 ± 4.11, mean ± SD
From the text: (§1) The patients diagnosed with open angle glaucoma in total are 35 eyes of 20 patients, wherein 10 eyes are diagnosed as POAG, and 25 eyes are NTG, besides 2 eyes had received prior corneal refractive surgery, and 1 eye had undergone cataract extraction and intraocular lens implantation. In the aspect of the medication using, 20 eyes are treatment naïve upon entry of the study (that is they are not using IOP lowering medication), and 15 eyes are previously treated with IOP lowering medication. The IOP lowering medication in the treated patients were requested for the following medication washout period: 4 weeks for beta-blockers and prostaglandin analogues, 2-4 weeks for alpha-agonists, and 1 week for carbonic anhydrase inhibitors in order to eliminate the experimental errors.
All patients are received the best corrected visual acuity test (BCVA), IOP measurement, optical coherence tomography (OCT), laser speckle flowgraph (LSFG) evaluation, fundus photo, visual field examination, blood pressure (BP), and heart rate measurement, and then these obtained data are averaged as the baseline data of the experiment, but the intraocular eye disease other than OAG, significant cataract influencing refractive errors or visual field result, systemic disease with resultant visual field defect, and unreliable LSFG results are excluded. […]

optic nerve head area = experiment: Laser speckle flowgraph (LSFG) evaluation, mean blur rate and pulse waveform; type: in vivo, human; details: for MS (mean skew): baseline 11.92 ± 3.94; for MS (mean skew) / MBRt (mean blur rate of tissue area) / MF (mean fluctuation) / MATI (mean acceleration time index) / MBRv (mean blur rate of vessel area) / MBOT (mean blowout time) / MBOS (mean blowout score): mean ± SD; for MBRt (mean blur rate of tissue area): baseline 12.65 ± 3.57; for MF (mean fluctuation): baseline 13.76 ± 3.79; for MATI (mean acceleration time index): baseline 32.62 ± 5.80; for MBRv (mean blur rate of vessel area): baseline 40.24 ± 10.65; for MBOT (mean blowout time): baseline 50.53 ± 8.53; for MBOS (mean blowout score): baseline 75.27 ± 6.51; for MBRt (%), percentage of baseline / MBRv (%), percentage of baseline: baseline 100.0 ± 0
From the text: as §1
(§2) All patients are received the best corrected visual acuity test (BCVA), IOP measurement, optical coherence tomography (OCT), laser speckle flowgraph (LSFG) evaluation, fundus photo, visual field examination, blood pressure (BP), and heart rate measurement, and then these obtained data are averaged as the baseline data of the experiment, but the intraocular eye disease other than OAG, significant cataract influencing refractive errors or visual field result, systemic disease with resultant visual field defect, and unreliable LSFG results are excluded.
In the LSFG evaluation, one drop of said emulsion is instilled in the examined eyes at clinic. Afterward, LSFG measurements are repeated at 30 minutes and 2 hours post-LBN instillation. The patients would continuously instill the emulsion once every night for one month, and return to clinic again for another LSFG exam. Laser speckle flowgraph (LSFG-NAVI version 3.1.39.2 software, Softcare Ltd., Fukuoka, Japan) are used to measure the mean blur rate (MBR) of the optic nerve head area for pulse waveform analysis in all patients. Averaged MBR and pulse waveform parameters are documented at each LSFG measurement in order to evaluate the effect of latanoprostene bunod using on microcirculation of optic nerve head.

[3] = system: patients diagnosed with open angle glaucoma; experiment: Blood pressure, ocular perfusion pressure and heart rate measurement; type: in vivo, human; details: for MOPP (mean ocular perfusion pressure): baseline 48.82 ± 7.10; for MOPP (mean ocular perfusion pressure) / MHR (mean heart rate) / MBP (mean blood pressure): mean ± SD; for MHR (mean heart rate): baseline 74.03 ± 8.95; for MBP (mean blood pressure): baseline 99.69 ± 9.90
From the text: as §1, §2

[4] = all time points, Wilcoxon signed rank test

- assay of LBN upon storage [1]: remained unchanged
Compound: O=C(CCC/C=C\C[C@@H]1[C@@H](CC[C@@H](O)CCc2ccccc2)[C@H](O)C[C@@H]1O)OCCCCO[N+](=O)[O-] [LBN, Latanoprostene bunod]
- MIOP (mean intraocular pressure) ([2]; 30 minutes after instillation): 18.29 ± 4.00 mmHg
- MIOP (mean intraocular pressure) ([2]; 2 hours after instillation): 17.24 ± 4.14 mmHg
- MS (mean skew) (optic nerve head area; 1 month): 10.99 ± 2.30 AU
- MBRt (mean blur rate of tissue area) (optic nerve head area; 1 month): 12.67 ± 3.80 AU
- MF (mean fluctuation) (optic nerve head area; 1 month): 13.44 ± 3.31 AU
- MATI (mean acceleration time index) (optic nerve head area; 1 month): 31.71 ± 4.11%
- MBRv (mean blur rate of vessel area) (optic nerve head area; 1 month): 45.49 ± 12.22 AU
- MBOT (mean blowout time) (optic nerve head area; 1 month): 52.67 ± 6.62 AU
- MBOS (mean blowout score) (optic nerve head area; 1 month): 77.26 ± 6.26 AU
- MBRt (%), percentage of baseline (optic nerve head area; 1 month): 101.84 ± 15.33%
- MBRv (%), percentage of baseline (optic nerve head area; 1 month): 113.91 ± 26.53%
- MS (mean skew) (optic nerve head area; 30 minutes): 11.84 ± 2.08 AU
- MBRt (mean blur rate of tissue area) (optic nerve head area; 30 minutes): 12.48 ± 3.04 AU
- MF (mean fluctuation) (optic nerve head area; 30 minutes): 13.94 ± 4.30 AU
- MATI (mean acceleration time index) (optic nerve head area; 30 minutes): 31.51 ± 4.04%
- MBRv (mean blur rate of vessel area) (optic nerve head area; 30 minutes): 41.95 ± 10.03 AU
- MBOT (mean blowout time) (optic nerve head area; 30 minutes): 49.76 ± 6.17 AU
- MBOS (mean blowout score) (optic nerve head area; 30 minutes): 74.44 ± 7.60 AU
- MBRt (%), percentage of baseline (optic nerve head area; 30 minutes): 100.63 ± 14.37%
- MBRv (%), percentage of baseline (optic nerve head area; 30 minutes): 105.97 ± 16.49%
- MS (mean skew) (optic nerve head area; 2 hours): 11.82 ± 2.58 AU
- MBRt (mean blur rate of tissue area) (optic nerve head area; 2 hours): 12.73 ± 3.46 AU
- MF (mean fluctuation) (optic nerve head area; 2 hours): 13.46 ± 3.95 AU
- MBRv (mean blur rate of vessel area) (optic nerve head area; 2 hours): 45.14 ± 10.59 AU
- MBOT (mean blowout time) (optic nerve head area; 2 hours): 52.09 ± 5.56 AU
- MBOS (mean blowout score) (optic nerve head area; 2 hours): 76.24 ± 6.67 AU
- MBRt (%), percentage of baseline (optic nerve head area; 2 hours): 101.84 ± 13.71%
- MBRv (%), percentage of baseline (optic nerve head area; 2 hours): 114.36 ± 20.02% and 114.36 ± 20.2 %
- mean blur rate of tissue area (MBRt), difference from baseline (optic nerve head area; [4]): not significantly different
- MOPP (mean ocular perfusion pressure) ([3]; 1 month): 50.80 ± 12.06 mmHg
- MHR (mean heart rate) ([3]; 1 month): 72.03 ± 10.68 min⁻¹
- MBP (mean blood pressure) ([3]; 1 month): 98.08 ± 12.06 mmHg
- MOPP (mean ocular perfusion pressure) ([3]; 30 minutes): 47.87 ± 8.07 mmHg
- MBP (mean blood pressure) ([3]; 30 minutes): 99.62 ± 11.54 mmHg
- MOPP (mean ocular perfusion pressure) ([3]; 2 hours): 48.65 ± 9.48 mmHg
- MHR (mean heart rate) ([3]; 2 hours): 77.77 ± 11.11 min⁻¹
- MBP (mean blood pressure) ([3]; 2 hours): 98.88 ± 14.12 mmHg
- mean blood pressure (MBP), difference from baseline [3, 4]: not significantly different
- mean ocular perfusion pressure (MOPP), difference from baseline [3, 4]: not significantly different; also recorded: has not differed
